Data reported in patent publication US20230091225A1, “Bifunctional chimeric heterocyclic compounds for targeted degradation of androgen receptors and use thereof” (HINOVA PHARMACEUTICALS INC., priority 2019, published 2023).
Read-outs that look alike come from different tables or passages of the source.

Experiments:
androgen receptor (AR) [1] = target: T1, androgen receptor (AR) (Homo sapiens, UniProt P10275); test: Degradation of androgen receptor (AR) protein in VCaP cells by Western blot; assay type: cell-based; conditions: percentage of degraded AR at 100 nM, VCaP cells, 16 h
T1 sequence (P10275 1-920): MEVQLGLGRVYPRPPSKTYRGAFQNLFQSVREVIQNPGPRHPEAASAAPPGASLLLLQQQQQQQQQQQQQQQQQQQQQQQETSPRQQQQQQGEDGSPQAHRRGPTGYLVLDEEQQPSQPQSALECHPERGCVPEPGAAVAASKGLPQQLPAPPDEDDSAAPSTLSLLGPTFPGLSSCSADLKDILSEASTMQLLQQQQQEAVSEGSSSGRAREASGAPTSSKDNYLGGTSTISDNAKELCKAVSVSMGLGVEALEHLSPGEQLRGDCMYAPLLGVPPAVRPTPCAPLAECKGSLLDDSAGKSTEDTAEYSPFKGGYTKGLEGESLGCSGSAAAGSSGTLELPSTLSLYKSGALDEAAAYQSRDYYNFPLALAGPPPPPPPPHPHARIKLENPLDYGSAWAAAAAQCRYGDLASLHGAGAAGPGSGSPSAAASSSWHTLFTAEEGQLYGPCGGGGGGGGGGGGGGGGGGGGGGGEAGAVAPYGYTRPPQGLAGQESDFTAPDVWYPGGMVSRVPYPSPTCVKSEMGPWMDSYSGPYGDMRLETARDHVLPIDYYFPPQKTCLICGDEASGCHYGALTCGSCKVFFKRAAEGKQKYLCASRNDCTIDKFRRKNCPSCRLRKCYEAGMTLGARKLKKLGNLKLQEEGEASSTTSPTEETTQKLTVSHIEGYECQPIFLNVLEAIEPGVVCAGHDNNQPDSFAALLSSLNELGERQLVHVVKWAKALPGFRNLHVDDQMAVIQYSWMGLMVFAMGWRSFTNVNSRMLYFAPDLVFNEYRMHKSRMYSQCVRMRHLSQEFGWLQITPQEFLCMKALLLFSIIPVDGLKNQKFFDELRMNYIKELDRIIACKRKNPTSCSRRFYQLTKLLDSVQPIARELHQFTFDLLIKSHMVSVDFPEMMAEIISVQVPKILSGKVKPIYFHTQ
Method: Determination of the Degradation Activity of the Compound on Androgen Receptor (AR) Protein by Western Blot
1) VCaP cells were subcultured in cell culture media, and then the cells in good growth condition were seeded in a 12-well plate at 1 ml/well (5×10^5 cells/well), and cultured overnight in a 37° C., 5% CO2 cell incubator. 2) The test compound was prepared into a 10 mM stock solution with dimethyl sulfoxide (DMSO). Prior to use, the solution was diluted 3 times with DMSO. […] of the diluted compound solution was added to the cell culture well (ensuring that the DMSO concentration in the culture system was 0.1%), and two wells were set for each concentration. The plate was gently shaken to mix. In addition, the experiment included negative control wells (containing equal amount of DMSO) and positive control wells. 3) After culturing 16 h. the cells were lysed with RIPA cell lysate, and the protein was extracted. The protein concentration was measured with BCA kit. 5-fold concentrated protein loading buffer was added, and after heated at 100° C. for 5 min. the sample was stored at −20° C. 4) for each well, 30 μg of protein was loaded on polyacrylamide gel for electrophoresis. 5) The protein was transferred from polyacrylamide gel to PVDF membrane, and then 5% skim milk was added to close for 1 h at room temperature. The first antibody (Androgen Receptor (D6F11) XP Rabbit mAb and Anti-β-Actin Rabbit mAb) was added and incubated overnight at 4° C. The membrane was washed with TBST solution three times. 10 min for each time. The secondary antibody (horseradish peroxidase labeled goat […]) was added and incubated at room temperature for 2 h, and then the membrane was washed with TBST solution three times. 10 min for each time.
Finally, ECL chemiluminescence solution was added, and then photos were taken with automatic chemiluminescence instrument to collect pictures for analysis.

androgen receptor (AR) [2] = target: T1, androgen receptor (AR); test: Degradation of androgen receptor (AR) protein in VCaP cells by ELISA; assay type: cell-based; conditions: for Dmax: VCaP
[3] = AR degradation, VCaP cells, 16 h, ELISA, Table 3-2, read-out: DC50
[4] = AR degradation, VCaP cells, 16 h, ELISA, Table 3-2, read-out: Dmax (%)

Compound | inhibition at 0.1 µM (androgen receptor (AR) [1]) [%] | DC50 (androgen receptor (AR) [2]; [3]) [µM] | Dmax (androgen receptor (AR) [2]; [4]) [%] | further results
N#Cc1ccc(O[C@H]2CC[C@H](NC(=O)c3ccc(N4CCC(CN5CCCN(c6ccc7c(c6)C(=O)N(C6CCC(=O)NC6=O)C7=O)CC5)CC4)cc3)CC2)cc1Cl (stereo partly drawn) [Compound 58, N-((1R,4R)-4-(3-chloro-4-cyanophenoxy)cyclohexyl)-4-(4-((4-(2-(2,6-dioxopiperidin-3-yl)-1,3-dioxoisoindolin-5-yl)-1,4-diazepan-1-yl)methyl)piperidin-1-yl)benzamide] | 25 to 49 |  |  | 
N#Cc1ccc(O[C@H]2CC[C@H](NC(=O)c3ccc(N4CCC(N5CC6(CCN(c7cc8c(cc7F)C(=O)N(C7CCC(=O)NC7=O)C8=O)CC6)C5)CC4)nn3)CC2)cc1Cl (stereo partly drawn) [Compound 61, N-((1R,4R)-4-(3-chloro-4-cyanophenoxy)cyclohexyl)-6-(4-(7-(2-(2,6-dioxopiperidin-3-yl)-6-fluoro-1,3-dioxoisoindolin-5-yl)-2,7-diazaspiro[3.5]nonyl-2-yl)piperidin-1-yl)pyridazine-3-carboxamide] | > 80 |  |  | 
N#Cc1ccc(O[C@H]2CC[C@H](NC(=O)c3ccc(N4CCC(N5CC6CN(c7ccc8c(c7)C(=O)N(C7CCC(=O)NC7=O)C8=O)CC6C5)CC4)nn3)CC2)cc1Cl (stereo partly shown) [Compound 62, N-((1r,4r)-4-(3-chloro-4-cyanophenoxy)cyclohexyl)-6-(4-(5-(2-(2,6-dioxopiperidin-3-yl)-1,3-dioxoisoindolin-5-yl)hexahydropyrrolo[3,4-c]pyrrol-2(1H)-yl)piperidin-1-yl)pyridazine-3-carboxamide] | 50 to 79 |  |  | 
N#Cc1ccc(O[C@H]2CC[C@H](NC(=O)c3ccc(N4CC5CN(C6CCN(c7cc8c(cc7F)C(=O)N(C7CCC(=O)NC7=O)C8=O)CC6)CC5C4)nn3)CC2)cc1Cl (stereo partly shown) [Compound 67] | < 25 |  |  | 
N#Cc1ccc(O[C@H]2CC[C@H](NC(=O)c3cnc(N4CC5CN(C6CCN(c7ccc8c(c7)C(=O)N(C7CCC(=O)NC7=O)C8=O)CC6)CC5C4)cn3)CC2)cc1Cl (stereo partly shown) [Compound 69, N-((1r,4r)-4-(3-chloro-4-cyanophenoxy)cyclohexyl)-5-(5-(1-(2-(2,6-dioxopiperidin-3-yl)-1,3-dioxoisoindolin-5-yl)piperidine-4-yl)hexahydropyrrolo[3,4-c]pyrrol-2(1H)-yl)pyrazine-2-carboxamide] | < 25 |  |  | 
Cc1cc(O[C@H]2C(C)(C)[C@H](N3Cc4nc(C#C[C@H]5CC[C@H](N6CCN(c7ccc8c(c7)C(=O)N(C7CCC(=O)NC7=O)C8=O)CC6)CC5)ccc4C3=O)C2(C)C)ccc1C#N (stereo partly shown) [Compound 402] |  |  |  | DC50 (androgen receptor (AR) [2]): < 0.01 µM; Dmax (androgen receptor (AR) [2]): > 80%
N#Cc1ccc(O[C@H]2CC[C@H](NC(=O)c3nc(N4CCC(CN5CCC6(CC5)CN(c5ccc7c(c5)C(=O)N(C5CCC(=O)NC5=O)C7=O)C6)CC4)no3)CC2)cc1Cl (stereo partly shown) [Compound 413] |  |  |  | DC50 (androgen receptor (AR) [2]): < 0.01 µM; Dmax (androgen receptor (AR) [2]): > 80%
N#Cc1ccc(O[C@H]2CC[C@H](NC(=O)c3noc(N4CCC(CN5CCC6(CC5)CN(c5ccc7c(c5)C(=O)N(C5CCC(=O)NC5=O)C7=O)C6)CC4)n3)CC2)cc1Cl (stereo partly shown) [Compound 415] |  |  |  | DC50 (androgen receptor (AR) [2]): < 0.01 µM; Dmax (androgen receptor (AR) [2]): > 80%
N#Cc1ccc(O[C@H]2CC[C@H](NC(=O)c3cnc(N4CCC(CN5CCC6(CC5)CN(c5ccc7c(c5)C(=O)N(C5CCC(=O)NC5=O)C7=O)C6)CC4)nn3)CC2)cc1Br (stereo partly shown) [Compound 419] |  |  |  | Dmax (%) (androgen receptor (AR) [2]): ++++ (key: A: >80%; B: 79%-50%; C: 49%-25%; D: <25%); DC50 (androgen receptor (AR) [2]; read-out: DC50): < 0.01 µM
N-((1r,4r)-4-(3-chloro-4-cyanophenoxy)cyclohexyl)-6-(2-((1-(2,6-dioxopiperidin-3-yl)-6-fluoro-1,3-dioxoisoindolin-5-yl)piperidine-4-yl)methyl)-2,7-diazaspiro[(3.5]nonan-7-yl)-N-(methyl-d3)pyridazine-3-formamide [Compound 91] |  |  |  | Dmax (%) (androgen receptor (AR) [2]): + (key: ++++: >80%; +++: 80%-60%; ++: 60%-40%; +: <40%); DC50 (androgen receptor (AR) [2]; read-out: DC50): > 0.3 µM
N-((1r,4r)-4-(3-chloro-4-cyanophenoxy)cyclohexyl)-6-(4-((6-(2-(2,6-dioxopiperidin-3-yl)-6-fluoro-1,3-dioxoisoindolin-5-yl)-2,6-diazaspiro[3.3]heptan-2-yl)methyl)piperidin-1-yl)pyrazine-2-amide [Compound 123] |  |  |  | Dmax (%) (androgen receptor (AR) [2]): ++++ (key: A: >80%; B: 79%-50%; C: 49%-25%; D: <25%); DC50 (androgen receptor (AR) [2]; read-out: DC50): < 0.01 µM

The next lines start with results.

inhibition at 0.1 µM (androgen receptor (AR) [1]) [%] | DC50 (androgen receptor (AR) [2]; [3]) [µM] | Dmax (androgen receptor (AR) [2]; [4]) [%] | Compound | further results
50 to 79 |  |  | N#Cc1ccc(O[C@H]2CC[C@H](NC(=O)c3cnc(N4CCC(N5CC6CN(c7ccc8c(c7)C(=O)N(C7CCC(=O)NC7=O)C8=O)CC6C5)CC4)cn3)CC2)cc1Cl (stereo partly shown) [Compound 63, N-((1r,4r)-4-(3-chloro-4-cyanophenoxy)cyclohexyl)-5-(4-(5-(2-(2,6-dioxopiperidin-3-yl)-1,3-dioxoisoindolin-5-yl)hexahydropyrrolo[3,4-c]pyrrol-2(1H)-yl)piperidin-1-yl)pyrazine-2-carboxamide] | 
50 to 79 |  |  | N#Cc1ccc(O[C@H]2CC[C@H](NC(=O)c3cnc(N4CCC(N5CC6CN(c7cc8c(cc7F)C(=O)N(C7CCC(=O)NC7=O)C8=O)CC6C5)CC4)cn3)CC2)cc1Cl (stereo partly shown) [Compound 64, N-((1r,4r)-4-(3-chloro-4-cyanophenoxy)cyclohexyl)-5-(4-(5-(2-(2,6-dioxopiperidin-3-yl)-6-fluoro-1,3-dioxoisoindolin-5-yl)hexahydropyrrolo[3,4-c]pyrrol-2(1H)-yl)piperidin-1-yl)pyrazine-2-carboxamide] | 
 | < 0.01 | > 80 | N#Cc1ccc(O[C@H]2CC[C@H](NC(=O)c3nnc(N4CCC(CN5CCC6(CC5)CN(c5ccc7c(c5)C(=O)N(C5CCC(=O)NC5=O)C7=O)C6)CC4)o3)CC2)cc1Cl (stereo partly shown) [Compound 414] | 
 | < 0.01 | > 80 | N#Cc1ccc(O[C@H]2CC[C@H](NC(=O)c3ccn([C@H]4CC[C@H](CN5CCC6(CC5)CN(c5ccc7c(c5)C(=O)N(C5CCC(=O)NC5=O)C7=O)C6)CC4)n3)CC2)cc1Cl (stereo partly drawn) [Compound 416, N-((1r,4R)-4-(3-chloro-4-cyanophenoxy)cyclohexyl)-1-((1r,4R)-4-((2-(2-(2,6-dioxopiperidin-3-yl)-1,3-dioxoisoindolin-5-yl)-2,7-diazaspiro[3.5]nonan-7-yl)methyl)cyclohexyl)-1H-pyrazole-3-formamide] | 
 | < 0.01 | > 80 | N#Cc1ccc(O[C@H]2CC[C@H](NC(=O)c3cnc(N4CCC(CN5CCC6(CC5)CN(c5cc7c(cc5F)C(=O)N(C5CCC(=O)NC5=O)C7)C6)CC4)nn3)CC2)cc1Cl (stereo partly shown) [Compound 417] | 
 | < 0.01 | > 80 | N#Cc1ccc(O[C@H]2CC[C@H](NC(=O)c3cnc(N4CCC(CN5CCC6(CC5)CN(c5ccc7c(c5)C(=O)N(C5CCC(=O)NC5=O)C7=O)C6)CC4)nn3)CC2)cc1C(F)(F)F (stereo partly shown) [Compound 420, N-((1r,4r)-4-(4-cyano-3-trifluoromethyl-phenoxy)cyclohexyl)-3-(4-((2-(2-(2,6-dioxopiperidin-3-yl)-1,3-dioxoisoindolin-5-yl)-2,7-diazaspiro[3.5]nonane-7-yl)methyl)piperidin-1-yl)-1,2,4-triazine-6-formamide] | 
 | < 0.01 | > 80 | [2H]C([2H])([2H])Oc1cc(O[C@H]2C(C)(C)[C@H](N3Cc4nc(C#C[C@H]5CC[C@H](N6CCN(c7ccc8c(c7)C(=O)N(C7CCC(=O)NC7=O)C8=O)CC6)CC5)ccc4C3=O)C2(C)C)ccc1C#N (stereo partly shown) [Compound 429] | 
 | 0.1 to 0.3 | 60 to 80 | CCOc1cc(O[C@H]2C(C)(C)[C@H](N3Cc4nc(C#C[C@H]5CC[C@H](N6CCN(c7ccc8c(c7)C(=O)N(C7CCC(=O)NC7=O)C8=O)CC6)CC5)ccc4C3=O)C2(C)C)ccc1C#N (stereo partly shown) [Compound 430] | 
